One data set concerns PfDHODH. As to conditions: cited from earlier work.
The test system of data set [1] is P. falciparum Dd2 R3B (DHODH E182D). In words: P. falciparum growth EC50 determination. The data set is classed as cell-based. As to conditions: Plasmodium falciparum, DD2|DSM265, read-out: DSM265 EC50.
Data set [2] has as its system P. falciparum Dd2^Dhodh C276Y (CRISPR/Cas9-edited clones). As to the kind of experiment: In vitro 72 h drug susceptibility assay, CRISPR/Cas9 study. The data set is classed as cell-based. To be noted: Plasmodium falciparum, DD2|DSM265, read-out: DSM265 EC50.
Data set [3] has as its system P. falciparum Dd2 R10ClB (DHODH G181C). In words: P. falciparum growth EC50 determination. The data set is classed as cell-based. To be noted: Plasmodium falciparum, DD2|DSM265, read-out: DSM265 EC50.
The next data set deals with P. falciparum. To be noted: number of parasites; cited from earlier work.
Another data set relates to P. vivax. To be noted: compared with P. falciparum; cited from earlier work.
The conditions of data set [4]: neutral pH; cited from earlier work.
In data set [5] the test system is P. falciparum Dd2 BSmut control. As to the kind of experiment: In vitro 72 h drug susceptibility assay, CRISPR/Cas9 study. The data set is classed as cell-based. As to conditions: Plasmodium falciparum, DD2|DSM265, read-out: DSM265 EC50.
Data set [6] has as its system P. falciparum Dd2 RIAClB (DHODH C276F). In words: P. falciparum growth EC50 determination. The data set is classed as cell-based. To be noted: Plasmodium falciparum, DD2|DSM265, read-out: DSM265 EC50.
The test system of another data set is P. falciparum malaria. To be noted: cited from earlier work.
For a further data set, the system named is P. falciparum Dd2 parent. As to the kind of experiment: In vitro 72 h drug susceptibility assay, CRISPR/Cas9 study. As to conditions: Plasmodium falciparum, DD2|DSM265, read-out: DSM265 EC50. The data set is classed as cell-based.
The test system of data set [7] is P. falciparum Dd2 R2B (DHODH R265G). As to the kind of experiment: P. falciparum growth EC50 determination. To be noted: Plasmodium falciparum, DD2|DSM265, read-out: DSM265 EC50. The data set is classed as cell-based.
The subject of data set [8] is P. falciparum blood stage. To be noted: humans; cited from earlier work.
The test system of a further data set is P. falciparum sporozoite. To be noted: cited from earlier work.
Another data set relates to P. falciparum Dd2 WT. As to the kind of experiment: microbe, parasite or virus in culture. The data set is classed as cell-based. To be noted: Plasmodium falciparum, DD2|DSM265, read-out: DSM265 EC50.
For data set [9] the following is noted: single ascending dose (25–1200 mg), humans; cited from earlier work.
Data set [10] has as its system P. falciparum Dd2 R1BClA (DHODH L531F). As to the kind of experiment: P. falciparum growth EC50 determination. It is filed as cell-based. As to conditions: Plasmodium falciparum, DD2|DSM265, read-out: DSM265 EC50.
In data set [11] the test system is DSM265-resistant P. falciparum Dd2 parasites. In words: Drug sensitivity of DSM265-resistant Dd2 parasites. It is filed as cell-based, Plasmodium falciparum. To be noted: DSM265-selected Dd2 mutant lines; values in Table S1 (not available).
In data set [12] the test system is P. falciparum line from second round of DSM1 selections (increased dhodh copy number). As to conditions: cited from earlier work.

Entries after “also recorded” stand apart in the source; their conditions may differ. Like-named read-outs stand apart in the source and are kept apart here.

These results are taken from paper PMC6467762 (ACS infectious diseases, 2018).

For orientation: EC50 means the concentration giving half of the maximal effect.

As for `Cc1cc(Nc2ccc3ccccc3c2)n2ncnc2n1` [DSM1, 5-methyl-N-(naphthalen-2-yl)-[1,2,4]triazolo[1,5-a]pyrimidin-7-amine], the Mode of inhibition result in the data set with PfDHODH is “competitive inhibitor of CoQ”.
In the case of `Cc1cc(Nc2ccc(S(F)(F)(F)(F)F)cc2)n2nc(C(C)(F)F)nc2n1` [DSM265, 2-(1,1-difluoroethyl)-5-methyl-[N-[4-(pentafluorosulfanyl)phenyl] 1,2,4]triazolo[1,5-a]pyrimidin-7-amine], the half-maximal effective concentration (EC50) was 71 ± 13 nM in [1]; 120 ± 26 nM in data set [2]; 150 ± 51 nM in data set [3]; 5.1 ± 0.31 nM in data set [5]; 170 ± 55 nM in [6]; 4.8 ± 0.86 nM with P. falciparum Dd2 parent. In addition, the EC50 in [7] amounted to 150 ± 73 nM; in the data set with P. falciparum Dd2 WT, 4.6 ± 1.1 nM; in [10] it was 110 ± 17 nM. For the same molecule, the “Minimum inoculum of resistance for the emergence of DSM265-resistant parasites” value in the data set on P. falciparum was ≥ 10^5. Further, in the data set on P. vivax, the “Efficacy against P. vivax” value was “lower”. For the same molecule, the Solubility limit in data set [4] was ~ 30 μM. The Cure rate in the data set on P. falciparum malaria (single dose of 250 mg) is recorded as 60%. The “Patients parasite free, extended 28-day endpoint” value with P. falciparum malaria (single dose of 400 mg) is 8/9. Also, the “Efficacy in blood stage human challenge study” value in [8] is on record as “demonstrating efficacy”. Also, the Protection from infection result is on record as “partial protection” with P. falciparum sporozoite (dosed 3 or 7 days before challenge) and “full protection” in the data set on P. falciparum sporozoite (single dose of 400 mg given 1 day prior to challenge). Also, the Safety entry in data set [9] is “good safety”.
On to `C[C@@H]1CC[C@H]2[C@@H](C)C(=O)O[C@@H]3O[C@@]4(C)CC[C@@H]1[C@]32OO4` [artemisinin], for which the “Sensitivity of DSM265-resistant parasites (EC50 vs parent Dd2)” value in [11] is on record as “fully sensitive; also recorded: retained full sensitivity”.
In the case of `O=C1C(O)=C([C@H]2CC[C@H](c3ccc(Cl)cc3)CC2)C(=O)c2ccccc21` [atovaquone], in data set [11], the “Sensitivity of DSM265-resistant parasites (EC50 vs parent Dd2)” value is given as “retained full sensitivity; also recorded: fully sensitive”. Also, the “Sensitivity of DSM1-selected, dhodh-amplified cell line” value in [12] is reported as “partial tolerance”.
